Results taken from US10766952B2, “Methods for reducing migraine frequency in a subject in need thereof” (Beth Israel Deaconess Medical Center, Inc., priority 2017, dated 2020).

Legend:
[1] = system: naïve central trigeminovascular neurons; settings: Storer et al., 2004; cited from earlier work
[2] = system: CGRP activity (skin blood flow after saphenous nerve stimulation); assay: Skin vasodilatation induced by stimulation of rat saphenous nerve; format: in vivo; settings: 400 nmol/kg i.v., 3-5 minutes before stimulation; FIG. 2A, 2B
Method: To test antagonist activity of anti-CGRP antibodies, effect of the antibodies on skin vasodilatation by stimulation of rat saphenous nerve was tested using a rat model described previously. Escott et al., Br. J. Pharmacol. 110:772-776, 1993. In this rat model, electrical stimulation of saphenous nerve induces release of CGRP from nerve endings, resulting in an increase in skin blood flow. Blood flow in the foot skin of male Sprague Dawley rats (170-300 g, from Charles River Hollister) was measured after saphenous nerve stimulation. Rats were maintained under anesthesia with 2% isoflurane. Bretylium tosylate (30 mg/kg, administered i.v.) was given at the beginning of the experiment to minimize vasoconstriction due to the concomitant stimulation of sympathetic fibers of the saphenous nerve. Body temperature was maintained at 37° C. by the use of a rectal probe thermostatically connected to a temperature controlled heating pad. […]
For experiments shown in FIGS. […] Skin blood flow, measured as blood cell flux, was monitored with a laser Doppler flow meter. […]
For experiments shown in FIGS. 4A and 4B, saphenous nerve was exposed surgically before antibody administration. […] Skin blood flow, measured as blood cell flux, was monitored with a laser Doppler flow meter. […]

[3] = molecular target: T1, binding of G1 Fab to human α-CGRP on the chip (Homo sapiens); assay: Epitope mapping of antibody G1 by peptide competition using Biacore; settings: 10 μM peptide in 50 nM G1 Fab; FIG. 6
T1 construct: made in house; host or cells: E. coli (Fab); chip peptide purchased
T1 sequence (P01859 with tags, fused parts or gaps, other chains not shown): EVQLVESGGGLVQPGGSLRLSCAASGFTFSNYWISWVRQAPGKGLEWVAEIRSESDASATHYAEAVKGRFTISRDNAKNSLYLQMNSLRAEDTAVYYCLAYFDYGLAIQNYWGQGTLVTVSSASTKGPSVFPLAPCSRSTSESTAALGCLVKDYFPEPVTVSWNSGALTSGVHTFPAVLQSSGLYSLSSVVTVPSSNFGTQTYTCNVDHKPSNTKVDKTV
Text: N-biotinylated human α-CGRP was captured on SA sensor chip. […] Y axis represents percentage of binding blocked by the presence of the competing peptide compared with the binding in the absence of the competing peptide.
Human α-CGRP was purchased as an N-biotinylated version to enable its high-affinity capture via SA sensor chips. […] All these peptides are amidated at the C-terminus.

Compound | percentage of binding of G1 Fab to human α-CGRP blocked by competing peptide [3] | also measured
NCCCC[C@H](NC(=O)[C@@H](Cc1cc(Br)c(O)c(Br)c1)NC(=O)N1CCC(N2Cc3ccccc3NC2=O)CC1)C(=O)N1CCN(c2ccncc2)CC1 [BIBN4096BS] |  | responses to electrical stimulation of the superior sagittal sinus and microiontophoretic administration of L-glutamate [1]: inhibits
CGRP 8-37: positive control compound (vasodilatation antagonist) |  | blood flow increase stimulated by electronic pulses on saphenous nerve [2]: inhibited
calcitonin: SEQ ID NO: 45, CGNLSTCMLGTYTQDFNKFHTFPQTAIGVGAP | did not compete | 
human amylin: SEQ ID NO: 46, KCNTATCATQRLANFLVHSSNNFGAILSSTNVGSNTY | did not compete | 
